# Test system: Cytotoxicity
# Test: STAT3 blockade with qPCR and toxicity readouts – cell-based, STAT1 panel, cytotoxicity, late-stage follow-up (AID 2078)
# Conditions: STAT3/STAT1 inhibition panel, cell reporter assay
compound,measurement,value
c1ccc(CC2CCN(c3ncnc4sccc34)CC2)cc1,CC50,> 55.7 µM

# — PubChem BioAssay AID2078 (The Scripps Research Institute Molecular Screening Center, 2009)
